The results in this text go back to patent US9670227B2, “Thienopyrimidine derivatives, a process for their preparation and pharmaceutical compositions containing them” (LES LABORATOIRES SERVIER, priority 2013, dated 2017).

Molecules are shown by their SMILES. Like-named read-outs stand apart in the source and are kept apart here.

Test [1] deals with AMO-1 multiple myeloma cells. The test is described as follows: Quantification of the cleaved form of PARP in vivo (MSD ELISA, tumour lysates). Also noted: species or system mice (SCID strain). To be noted: activation factor: cleaved PARP in treated mice / control mice, AMO-1 xenograft in SCID mice, intraveinous or oral routes. How it is done:
The ability of the compounds of the invention to induce apoptosis, by measuring cleaved PARP levels, is evaluated in a xenograft model of AMO-1 multiple myeloma cells. 1.10^7 AMO-1 cells are grafted sub-cutaneously into immunosuppressed mice (SCID strain). 12 to 14 days after the graft, the animals are treated by intraveinous or oral routes with the various compounds. After treatment, the tumour masses are recovered and lysed, and the cleaved form of PARP is quantified in the tumour lysates.
The quantification is carried out using the “Meso Scale Discovery (MSD) ELISA platform” test, which specifically assays the cleaved form of PARP. It is expressed in the form of an activation factor corresponding to the ratio between the quantity of cleaved PARP in the treated mice divided by the quantity of cleaved PARP in the control mice.
Background: In an ELISA, binding on a coated surface is turned into a signal by an enzyme label.

Test [2] addresses Mcl-1 protein (UniProtKB primary accession number: Q07820) (Homo sapiens, UniProt Q07820). In words: Inhibition of Mcl-1 by fluorescence polarisation, Method 1. Format: binding. The note with it: read-out: IC50 (M) Mcl-1 FP. The essentials:
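FP readout of relative binding potency. Mcl-1 5 nM final, fluorescein-labelled ligand 1 nM final; buffer 10 mM HEPES, 150 mM NaCl, 0.05% Tween 20, pH 7.4; 11-pt dilution series, 5% DMSO final.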

Test [3] relates to H929 multiple myeloma tumour line. The test is described as follows: In vitro cytotoxicity, Microculture Tetrazolium Assay. The note with it: H929 cells, 48 hours exposure, read-out: IC50 (μM) MTT H929. Format: cell-based. The protocol:
The cytotoxicity studies were carried out on the H929 multiple myeloma tumour line.
The cells are distributed onto microplates and exposed to the test compounds for 48 hours.

Setting [4] is: fluorescence polarisation test, Method 1, or Method 2 where the value is underlined (underlining not visible).
[5] abbreviates: Homo sapiens, NCI-H929, 48 h, cell viability.
[6] abbreviates: fluorescence polarisation, Method 1, or Method 2.
Where [7] appears, read: Homo sapiens, NCI-H929, 48 h, MTT.
The mark [8] stands for this setting: fluorescence polarisation test, Method 2 values are underlined in the patent (underlining not visible here).

For orientation: IC50 means the concentration that gives 50% inhibition.

Sequence of Mcl-1 protein (Q07820 whole entry): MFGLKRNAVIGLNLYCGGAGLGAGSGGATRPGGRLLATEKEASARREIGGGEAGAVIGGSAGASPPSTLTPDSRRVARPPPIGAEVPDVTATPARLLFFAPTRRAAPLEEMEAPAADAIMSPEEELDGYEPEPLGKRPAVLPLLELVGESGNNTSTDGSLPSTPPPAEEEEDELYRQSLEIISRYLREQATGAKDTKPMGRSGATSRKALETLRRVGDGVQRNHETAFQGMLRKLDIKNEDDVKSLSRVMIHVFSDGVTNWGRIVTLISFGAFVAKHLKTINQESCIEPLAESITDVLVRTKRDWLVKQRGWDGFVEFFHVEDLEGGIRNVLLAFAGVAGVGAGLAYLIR

Turning to `COc1ccccc1-c1nccc(COc2ccccc2CC(Oc2ncnc3sc(-c4ccc(F)cc4)c(-c4ccc(OCCN5CCN(C)CC5)c(Cl)c4C)c23)C(=O)OCC(F)(F)F)n1` [Example 808, 2,2,2-trifluoroethyl (2R)-2-{[(5Sa)-5-{3-chloro-2-methyl-4-[2-(4-methylpiperazin-1-yl)ethoxy]phenyl}-6-(4-fluorophenyl)thieno[2,3-d]pyrimidin-4-yl]oxy}-3-(2-{[2-(2-methoxyphenyl)pyrimidin-4-yl]methoxy}phenyl)propanoate], the PARP fold in test [1] came out at 155 fold. The IC50 in test [2] (setting [4]) was found to be 1.72e-07 M; in test [3] (setting [5]), 0.01 µM.

As to `Cc1c(-c2c(-c3ccc(F)cc3)sc3ncnc(OC(Cc4ccccc4OCc4ccnc(-c5ccccc5F)n4)C(=O)O)c23)ccc(OCCN(C)C)c1Cl` [Example 757, (2R)-2-{[(5Sa)-5-{3-chloro-4-[2-(dimethylamino)ethoxy]-2-methylphenyl}-6-(4-fluorophenyl)thieno[2,3-d]pyrimidin-4-yl]oxy}-3-(2-{[2-(2-fluorophenyl)pyrimidin-4-yl]methoxy}phenyl)propanoic acid], in test [1], the PARP fold is 135.6 fold. The IC50 was determined as 3.95e-09 M in test [2] (setting [6]) and 0.013 µM in test [3] (setting [7]).

`CC#Cc1sc2ncnc(OC(Cc3ccccc3OCc3ccnc(OCC(F)(F)F)n3)C(=O)O)c2c1-c1ccc(OCCN2CCN(C)CC2)c(Cl)c1C` [Example 487, (2R)-2-{[(5Sa)-5-{3-chloro-2-methyl-4-[2-(4-methylpiperazin-1-yl)ethoxy]phenyl}-6-(prop-1-yn-1-yl)thieno[2,3-d]pyrimidin-4-yl]oxy}-3-(2-{[2-(2,2,2-trifluoroethoxy)pyrimidin-4-yl]methoxy}phenyl)propanoic acid] returned a PARP fold in test [1] of 141.4 fold. For the same compound, the IC50 worked out at 6.5e-09 M in test [2] (setting [6]) and 0.004 µM in test [3] (setting [7]).

As to `COc1ccccc1-c1nccc(COc2ccccc2CC(Oc2ncnc3sc(-c4ccc(F)cc4)c(-c4ccc(OCCN5CCN(C)CC5)c(Cl)c4C)c23)C(=O)OCc2oc(=O)oc2C)n1` [Example 811, (5-methyl-2-oxo-1,3-dioxol-4-yl)methyl (2R)-2-{[(5Sa)-5-{3-chloro-2-methyl-4-[2-(4-methylpiperazin-1-yl)ethoxy]phenyl}-6-(4-fluorophenyl)thieno[2,3-d]pyrimidin-4-yl]oxy}-3-(2-{[2-(2-methoxyphenyl)pyrimidin-4-yl]methoxy}phenyl)propanoate], the PARP fold in test [1] stood at 117.6 fold. Moreover, the IC50 in test [2] (setting [4]) was found to be 8.55e-09 M; in test [3] (setting [5]), 0.002 µM.

As to `COCCOc1nccc(COc2ccccc2CC(Oc2ncnc3sc(-c4ccc(F)cc4)c(-c4ccc(OCCN5CCN(C)CC5)c(Cl)c4C)c23)C(=O)O)n1` [Example 63, (2R)-2-{[(5Sa)-5-{3-chloro-2-methyl-4-[2-(4-methylpiperazin-1-yl)ethoxy]phenyl}-6-(4-fluorophenyl)thieno[2,3-d]pyrimidin-4-yl]oxy}-3-(2-{[2-(2-methoxyethoxy)pyrimidin-4-yl]methoxy}phenyl)propanoic acid], the PARP fold in test [1] turned out to be 177.8 fold. Also, the IC50 in test [2] (setting [8]) was found to be 4.5e-09 M; in test [3] (setting [7]) it was 0.009 µM.

`CC#Cc1sc2ncnc(OC(Cc3ccccc3OCc3ccnc(N4CCOCC4)n3)C(=O)O)c2c1-c1ccc(OCCN2CCN(C)CC2)c(Cl)c1C` [Example 485, (2R)-2-{[(5Sa)-5-{3-chloro-2-methyl-4-[2-(4-methylpiperazin-1-yl)ethoxy]phenyl}-6-(prop-1-yn-1-yl)thieno[2,3-d]pyrimidin-4-yl]oxy}-3-(2-{[2-(morpholin-4-yl)pyrimidin-4-yl]methoxy}phenyl)propanoic acid] yielded a PARP fold in test [1] of 110.8 fold. Further, the IC50 in test [2] (setting [6]) was found to be 4.3e-09 M; in test [3] (setting [7]), 0.012 µM.

On to `Cc1c(-c2c(-c3ccc(F)cc3)sc3ncnc(OC(Cc4ccccc4OCc4ccnn4C(C)(C)C)C(=O)O)c23)ccc(OCCN(C)C)c1Cl` [Example 750, (2R)-3-{2-[(1-tert-butyl-1H-pyrazol-5-yl)methoxy]phenyl}-2-{[(5Sa)-5-{3-chloro-4-[2-(dimethylamino)ethoxy]-2-methylphenyl}-6-(4-fluorophenyl)thieno[2,3-d]pyrimidin-4-yl]oxy}propanoic acid], for which the PARP fold in test [1] was 181.6 fold. Also, the figures for the 50% inhibitory concentration (IC50) in test [2] (setting [6]) and in test [3] (setting [7]) were 1.33e-09 M and 0.035 µM, respectively.

On to `COCCOc1ccccc1-c1nccc(COc2ccccc2CC(Oc2ncnc3sc(-c4ccc(F)cc4)c(-c4ccc(OCCN5CCN(C)CC5)c(Cl)c4C)c23)C(=O)O)n1` [Example 724, (2R)-2-{[(5Sa)-5-{3-chloro-2-methyl-4-[2-(4-methylpiperazin-1-yl)ethoxy]phenyl}-6-(4-fluorophenyl)thieno[2,3-d]pyrimidin-4-yl]oxy}-3-[2-({2-[2-(2-methoxyethoxy)phenyl]pyrimidin-4-yl}methoxy)phenyl]propanoic acid], for which the PARP fold in test [1] was determined as 188.9 fold. For the same compound, the IC50 came out at 9.48e-10 M in test [2] (setting [6]) and 0.002 µM in test [3] (setting [7]).

`CCc1ccccc1-c1nccc(COc2ccccc2C[C@@H](Oc2ncnc3sc(-c4ccc(F)cc4)c(-c4ccc(OCCN5CCN(C)CC5)c(Cl)c4C)c23)C(=O)O)n1` [Example 726, (2R)-2-{[(5Sa)-5-{3-chloro-2-methyl-4-[2-(4-methylpiperazin-1-yl)ethoxy]phenyl}-6-(4-fluorophenyl)thieno[2,3-d]pyrimidin-4-yl]oxy}-3-(2-{[2-(2-ethylphenyl)pyrimidin-4-yl]methoxy}phenyl)propanoic acid] registered a PARP fold in test [1] of 112.5 fold. For the same compound, the IC50 in test [2] (setting [6]) was 1.18e-09 M; in test [3] (MTT), 0.011 µM.

With `COCCOCCOC(=O)C(Cc1ccccc1OCc1ccnc(-c2ccccc2OC)n1)Oc1ncnc2sc(-c3ccc(F)cc3)c(-c3ccc(OCCN4CCN(C)CC4)c(Cl)c3C)c12` [Example 814, 2-(2-methoxyethoxy)ethyl (2R)-2-{[(5Sa)-5-{3-chloro-2-methyl-4-[2-(4-methylpiperazin-1-yl)ethoxy]phenyl}-6-(4-fluorophenyl)thieno[2,3-d]pyrimidin-4-yl]oxy}-3-(2-{[2-(2-methoxyphenyl)pyrimidin-4-yl]methoxy}phenyl)propanoate], the PARP fold in test [1] was 118.5 fold. The IC50 in test [2] (setting [4]) was 6.39e-07 M; in test [3] (setting [5]), 0.314 µM.

`CCCCn1nncc1COc1ccccc1CC(Oc1ncnc2sc(-c3ccc(F)cc3)c(-c3ccc(OCCN4CCN(C)CC4)c(Cl)c3C)c12)C(=O)O` [Example 95, (2R)-3-{2-[(1-butyl-1H-1,2,3-triazol-5-yl)methoxy]phenyl}-2-{[(5Sa)-5-{3-chloro-2-methyl-4-[2-(4-methylpiperazin-1-yl)ethoxy]phenyl}-6-(4-fluorophenyl)thieno[2,3-d]pyrimidin-4-yl]oxy}propanoic acid] showed a PARP fold in test [1] of 156.8 fold. Further, the figures for the IC50 in test [2] (setting [8]) and in test [3] (setting [7]) were 4.2e-09 M and 0.022 µM, respectively.

Turning to `COc1ccccc1-c1nccc(COc2ccccc2CC(Oc2ncnc3sc(-c4ccc(OCc5ccccc5)cc4)c(-c4ccc(OCCN5CCN(C)CC5)c(Cl)c4C)c23)C(=O)O)n1` [Example 762, (2R)-2-[(6-[4-(benzyloxy)phenyl]-(5Sa)-5-{3-chloro-2-methyl-4-[2-(4-methylpiperazin-1-yl)ethoxy]phenyl}thieno[2,3-d]pyrimidin-4-yl)oxy]-3-(2-{[2-(2-methoxyphenyl)pyrimidin-4-yl]methoxy}phenyl)propanoic acid], the PARP fold in test [1] was 136.9 fold. Further, the IC50 was determined as 1.88e-09 M in test [2] (setting [6]) and 0.014 µM in test [3] (setting [7]).

Turning to `CC#Cc1sc2ncnc(OC(Cc3ccccc3OCc3ccnn3C(C)(C)C)C(=O)O)c2c1-c1ccc(OCCN2CCN(C)CC2)c(Cl)c1C` [Example 488, (2R)-3-{2-[(1-tert-butyl-1H-pyrazol-5-yl)methoxy]phenyl}-2-{[(5Sa)-5-{3-chloro-2-methyl-4-[2-(4-methylpiperazin-1-yl)ethoxy]phenyl}-6-(prop-1-yn-1-yl)thieno[2,3-d]pyrimidin-4-yl]oxy}propanoic acid], the PARP fold in test [1] stood at 175.5 fold. For the same compound, the IC50 in test [2] (setting [6]) was found to be 5.4e-09 M; in test [3] (setting [7]) it was 0.014 µM.

For `Cc1c(-c2c(-c3ccc(F)cc3)sc3ncnc(OC(Cc4ccccc4OCc4ccnc(-c5ccccc5O)n4)C(=O)O)c23)ccc(OCCN2CCN(C)CC2)c1Cl` [Example 722, (2R)-2-{[(5Sa)-5-{3-chloro-2-methyl-4-[2-(4-methylpiperazin-1-yl)ethoxy]phenyl}-6-(4-fluorophenyl)thieno[2,3-d]pyrimidin-4-yl]oxy}-3-(2-{[2-(2-hydroxyphenyl)pyrimidin-4-yl]methoxy}phenyl)propanoic acid], in test [1], the PARP fold came out at 296.6 fold. In addition, the IC50 in test [2] (setting [6]) was 1.4e-09 M; in test [3] (setting [7]) it was 0.023 µM.
